The values that follow come from US11072585B2 (PharmAkea, Inc., priority 2015, dated 2021).

pIC50: −log10 of the molar value. Structures can show the parent of a compound that is named as a salt.

The pIC50 is the IC50 on a negative log10 scale, so that one unit is a factor of ten.

human LOXL2, sequence (Q9Y4K0 26-774): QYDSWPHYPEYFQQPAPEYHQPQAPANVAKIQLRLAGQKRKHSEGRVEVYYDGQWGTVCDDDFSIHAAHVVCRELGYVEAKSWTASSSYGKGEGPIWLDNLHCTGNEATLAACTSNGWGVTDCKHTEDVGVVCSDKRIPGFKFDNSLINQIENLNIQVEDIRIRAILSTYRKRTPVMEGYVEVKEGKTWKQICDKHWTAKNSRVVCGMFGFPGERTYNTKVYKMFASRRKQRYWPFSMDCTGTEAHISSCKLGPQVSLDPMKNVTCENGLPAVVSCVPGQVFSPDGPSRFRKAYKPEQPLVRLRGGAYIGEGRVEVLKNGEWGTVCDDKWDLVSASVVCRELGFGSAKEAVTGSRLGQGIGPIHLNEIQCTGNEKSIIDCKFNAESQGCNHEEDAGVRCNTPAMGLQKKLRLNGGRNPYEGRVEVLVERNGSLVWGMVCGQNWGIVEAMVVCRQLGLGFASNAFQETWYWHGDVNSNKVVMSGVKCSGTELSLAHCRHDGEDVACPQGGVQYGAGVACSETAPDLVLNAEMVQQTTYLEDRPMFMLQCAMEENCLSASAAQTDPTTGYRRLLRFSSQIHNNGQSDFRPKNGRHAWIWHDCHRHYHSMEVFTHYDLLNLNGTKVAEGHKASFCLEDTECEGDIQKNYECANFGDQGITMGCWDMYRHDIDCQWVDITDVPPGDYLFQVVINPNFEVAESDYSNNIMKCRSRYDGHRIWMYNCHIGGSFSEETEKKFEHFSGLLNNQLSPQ

This test concerns the target human LOXL2 (Homo sapiens (Human), UniProt Q9Y4K0). The test can be described thus: Human LOXL2 amine oxidase activity assay (Amplex Red). Format: biochemical. To be noted: concentrated conditioned media from CHO cells stably expressing human LOXL2; 2 h at 37° C. with compound; DAP substrate. In short, it runs like this:
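Concentrated conditioned medium from CHO cells stably expressing human LOXL2 was preincubated with compound for 2 h at 37 °C in 50 mM borate, pH 8. 1,5-diaminopentane substrate and Amplex Red/HRP were then added. Fluorescence (544/590) was read kinetically every 2 min for 1 h, with activity taken from the linear slope.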
For `NCc1cc(Oc2cccc(C(=O)N3CCC4(CC3)CNC(=O)O4)c2)nc(C(F)(F)F)c1` [Compound 1-27, 8-(3-((4-(Aminomethyl)-6-(trifluoromethyl)pyridin-2-yl)oxy)benzoyl)-1-oxa-3,8-diazaspiro[4.5]decan-2-one hydrochloride], the pIC50 is over 6.52.
Next, `C#Cc1cccc(NC(=O)c2cccc(Oc3cc(CN)cc(C(F)(F)F)n3)c2)c1` [Compound 1-247, 3-((4-(Aminomethyl)-6-(trifluoromethyl)pyridin-2-yl)oxy)-N-(3-ethynylphenyl)benzamide hydrochloride]: over 6.52; `NCc1cc(O[C@H]2CCCN(C(=O)Cc3ccc(Cl)c(Cl)c3)C2)nc(C(F)(F)F)c1` [Compound 1-47, (S)-1-(3-((4-(Aminomethyl)-6-(trifluoromethyl)pyridin-2-yl)oxy)piperidin-1-yl)-2-(3,4-dichlorophenyl)ethanone trifluoroacetate]: over 6.52; `CN(C)CCNC(=O)c1cccc(Oc2cc(CN)cc(C(F)(F)F)n2)c1` [Compound 1-35, 3-((4-(Aminomethyl)-6-(trifluoromethyl)pyridin-2-yl)oxy)-N-(2-(dimethylamino)ethyl)benzamide dihydrochloride]: over 6.52.
In the case of `NCc1cc(OCc2cccc(C(=O)N3C[C@@H](O)[C@H](F)C3)c2)nc(C(F)(F)F)c1` (racemic) [Compound 1-36, Racemic-trans-(3-(((4-(aminomethyl)-6-(trifluoromethyl)pyridin-2-yl)oxy)methyl)phenyl)(3-fluoro-4-hydroxypyrrolidin-1-yl)methanone hydrochloride] it was over 6.52; in that of `NCc1cc(Oc2cccc(C(=O)NCc3cc4ccccc4s3)c2)nc(C(F)(F)F)c1` [Compound 1-10, 3-((4-(Aminomethyl)-6-(trifluoromethyl)pyridin-2-yl)oxy)-N-(benzo[b]thiophen-2-ylmethyl)benzamide hydrochloride], over 6.52; in that of `NCc1cc(Oc2cccc(C(=O)N3C[C@@H](F)[C@@H](O)C3)c2)nc(C(F)(F)F)c1` (single isomer, unassigned) [Compound 1-251, (R,S) or (S,R)-cis-(3-((4-(Aminomethyl)-6-(trifluoromethyl)pyridin-2-yl)oxy)phenyl)(3-fluoro-4-hydroxypyrrolidin-1-yl)methanone hydrochloride], over 6.52.
Take `NCc1cc(NCc2cccc(C(=O)Nc3ccccc3)c2)nc(C(F)(F)F)c1` [Compound 1-105, 3-(((4-(Aminomethyl)-6-(trifluoromethyl)pyridin-2-yl)amino)methyl)-N-phenylbenzamide hydrochloride]: the pIC50 was over 6.52.
Next, `NCc1cc(Oc2cccc(C(=O)N3C[C@@H](F)[C@@H](O)C3)c2)nc(C(F)(F)F)c1` (single isomer, unassigned) [Compound 1-250, (R,S) or (S,R)-cis-(3-((4-(Aminomethyl)-6-(trifluoromethyl)pyridin-2-yl)oxy)phenyl)(3-fluoro-4-hydroxypyrrolidin-1-yl)methanone hydrochloride]: over 6.52.
Next, `NCc1cc(Oc2cccc(C(=O)O)c2)nc(C(F)(F)F)c1` [Compound 1-224, 3-((4-(Aminomethyl)-6-(trifluoromethyl)pyridin-2-yl)oxy)benzoic acid hydrochloride]: 6.00 to 6.52.
In the case of `CC(C)(O)CNC(=O)c1cccc(Oc2cc(CN)cc(C(F)(F)F)n2)c1` [Compound 1-32, 3-((4-(Aminomethyl)-6-(trifluoromethyl)pyridin-2-yl)oxy)-N-(2-hydroxy-2-methylpropyl)benzamide hydrochloride] it was over 6.52; in that of `NCc1cc(Oc2cccc3c2ccn3CC(=O)N2CCCCC2)nc(C(F)(F)F)c1` [Compound 1-56, 2-(4-((4-(Aminomethyl)-6-(trifluoromethyl)pyridin-2-yl)oxy)-1H-indol-1-yl)-1-(piperidin-1-yl)ethanone], 6.00 to 6.52.
